In patent US4002754A, “Substituted piperazinyliminorifamycins” (Gruppo Lepetit S.p.A., priority 1975, dated 1977):
In brackets after ≈: the same amount, converted by molar mass.

Columns and labels:
[1] = system: Mycobacterium tuberculosis H37 Rv; test: minimal inhibitory concentration (antimicrobial activity); assay type: cell-based; details: H37RV, read-out: minimal inhibitory concentration
Text: (§1) The unexpected biological characteristics of the novel rifamycins have been evidenced by considering the survival time after a daily administration of rifampicin and a once-a-week administration of the same dose level per os of 3-[4-(2-propenyl)-1-piperazinyl]iminorifamycin SV (hereinafter referred to as "propenyl derivative") to mice infected with Mycobacterium tuberculosis H37 Rv. […] For instance, the value of the minimal inhibitory concentration of propenyl derivative against Mycobacterium tuberculosis H37 Rv is 0.02 μg/ml while that of rifampicin is 0.5 μg/ml.

[2] = system: Mycobacterium tuberculosis H37 Rv; test: survival time of mice infected with Mycobacterium tuberculosis H37 Rv; assay type: in vivo; details: once-a-week per os vs daily rifampicin at same dose level; total amount about 1/6
Text: as §1

[3] = in vivo; details: mouse
[4] = system: Staphylococcus aureus; test: experimental Staphylococcus aureus infection in mice; assay type: in vivo; details: po
Method: In fact, propynyl derivative (i.e. 3-[4-(2-propynyl)-1-piperazinyl]iminomethylrifamycin SV) in representative experiments has shown an ED50 value of 0.20 mg/kg p.o. The toxicity is very low, the LD 50 value in mice being higher than 2000 mg/kg p.o. The new compounds are suitably administered in usual pharmaceutical combinations with conventional carriers.

[5] = toxicity (LD50) in mice; details: in words

Structure (SMILES)	MIC [1] [µg/mL]	survival time [2]	LD50 ([3]; ip) [mg/kg]	LD50 ([3]; po) [mg/kg]	ED50 [4] [mg/kg]	toxicity [5]
C=CCN1CCN(N=Cc2c3c(O)c4c(O)c(C)c5c(c4c2O)C(=O)C(C)(OC=CC(OC)C(C)C(OC(C)=O)C(C)C(O)C(C)C(O)C(C)C=CC=C(C)C(=O)N3)O5)CC1 (stereo not shown) [propenyl derivative, 3-[4-(2-Propenyl)-1-piperazinyl]iminomethylrifamycin SV]	0.02 (≈ 0.0236 µM)	about the same survival time	~700	~1500		
C#CCN1CCN(N=Cc2c3c(O)c4c(O)c(C)c5c(c4c2O)C(=O)C(C)(OC=CC(OC)C(C)C(OC(C)=O)C(C)C(O)C(C)C(O)C(C)C=CC=C(C)C(=O)N3)O5)CC1 (stereo not shown) [propynyl derivative, 3-[4-(2-Propynyl)-1-piperazinyl]iminomethylrifamycin SV]				> 2000	0.2	very low
